The source of these data is ChEMBL document CHEMBL5550199, “Rational In Silico Design of Selective TMPRSS6 Peptidomimetic Inhibitors via Exploitation of the S2 Subpocket” (J Med Chem, 2024).

Data set [1] concerns the target T1, Transmembrane protease serine 6 (Homo sapiens, UniProt Q8IU80).
T1 sequence (Q8IU80 whole entry): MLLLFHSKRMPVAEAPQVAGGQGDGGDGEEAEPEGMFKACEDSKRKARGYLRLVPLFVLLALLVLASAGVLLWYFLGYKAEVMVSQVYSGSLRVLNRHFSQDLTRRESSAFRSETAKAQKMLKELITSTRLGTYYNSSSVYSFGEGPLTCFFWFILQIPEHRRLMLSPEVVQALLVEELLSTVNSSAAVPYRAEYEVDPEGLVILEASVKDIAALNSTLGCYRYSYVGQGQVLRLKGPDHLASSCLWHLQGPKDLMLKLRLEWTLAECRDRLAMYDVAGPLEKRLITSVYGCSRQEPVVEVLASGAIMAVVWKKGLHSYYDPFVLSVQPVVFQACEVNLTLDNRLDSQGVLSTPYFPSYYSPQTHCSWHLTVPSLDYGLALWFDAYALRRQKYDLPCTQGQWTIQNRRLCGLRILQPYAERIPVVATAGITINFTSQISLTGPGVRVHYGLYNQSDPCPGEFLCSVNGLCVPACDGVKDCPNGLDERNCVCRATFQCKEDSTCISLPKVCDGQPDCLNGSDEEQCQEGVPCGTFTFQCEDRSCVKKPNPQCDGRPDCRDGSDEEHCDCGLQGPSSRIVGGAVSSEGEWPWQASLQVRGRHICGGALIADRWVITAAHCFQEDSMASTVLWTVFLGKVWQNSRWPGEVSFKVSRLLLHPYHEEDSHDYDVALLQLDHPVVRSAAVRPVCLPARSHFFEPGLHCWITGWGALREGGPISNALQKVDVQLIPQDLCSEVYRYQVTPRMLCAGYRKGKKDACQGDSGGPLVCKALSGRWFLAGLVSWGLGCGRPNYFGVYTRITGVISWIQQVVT
Briefly: Binding affinity to recombinant human TMPRSS6 using Boc-QAR-AMC as substrate assessed as inhibition constant by fluorescence based analysis.

Data set [2] concerns the target T2, Suppressor of tumorigenicity 14 protein (Homo sapiens, UniProt Q9Y5Y6).
T2 sequence (Q9Y5Y6 whole entry): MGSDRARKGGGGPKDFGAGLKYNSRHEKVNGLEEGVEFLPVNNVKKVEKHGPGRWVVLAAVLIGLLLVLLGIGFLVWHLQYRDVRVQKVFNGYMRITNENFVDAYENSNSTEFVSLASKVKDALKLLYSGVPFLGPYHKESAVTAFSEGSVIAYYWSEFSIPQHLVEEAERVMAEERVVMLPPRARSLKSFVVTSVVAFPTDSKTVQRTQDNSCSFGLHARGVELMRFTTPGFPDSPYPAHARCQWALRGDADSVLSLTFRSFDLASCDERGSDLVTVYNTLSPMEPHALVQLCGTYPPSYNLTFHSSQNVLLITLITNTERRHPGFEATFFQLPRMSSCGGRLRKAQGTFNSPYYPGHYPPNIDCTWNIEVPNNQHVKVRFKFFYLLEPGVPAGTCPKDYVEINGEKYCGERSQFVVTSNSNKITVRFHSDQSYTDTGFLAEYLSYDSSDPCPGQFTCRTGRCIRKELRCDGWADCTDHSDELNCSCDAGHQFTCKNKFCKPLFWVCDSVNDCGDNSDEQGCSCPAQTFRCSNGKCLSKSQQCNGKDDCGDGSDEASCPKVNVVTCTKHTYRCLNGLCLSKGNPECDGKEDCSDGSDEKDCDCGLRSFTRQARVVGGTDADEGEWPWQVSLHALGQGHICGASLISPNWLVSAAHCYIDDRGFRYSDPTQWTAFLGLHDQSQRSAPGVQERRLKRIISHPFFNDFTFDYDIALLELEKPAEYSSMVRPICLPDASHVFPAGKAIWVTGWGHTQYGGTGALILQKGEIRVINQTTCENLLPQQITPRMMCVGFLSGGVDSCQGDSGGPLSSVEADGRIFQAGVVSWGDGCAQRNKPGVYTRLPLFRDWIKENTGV
Briefly: Binding affinity to recombinant human Matriptase using Boc-QAR-AMC as substrate assessed as inhibition constant by fluorescence based analysis.

Data set [3] is filed under the species Homo sapiens. Description: Selectivity index, ratio of Ki for binding affinity to recombinant human Matriptase using Boc-QAR-AMC as substrate assessed as inhibition constant by fluorescence based analysis to Ki for binding affinity to recombinant human TMPRSS6 using Boc-QAR-AMC as substrate assessed as inhibition constant by fluorescence based analysis.
Data set [4] concerns the target T3, Transmembrane protease serine 6 (Homo sapiens) (UniProt Q8IU80).
T3 sequence (whole entry): T1 sequence (Q8IU80 whole entry)
Description: Inhibition of recombinant human TMPRSS6 at 100 nM by Michaelis-Menten analysis relative to control.

The target in data set [5] is T4, Suppressor of tumorigenicity 14 protein (Homo sapiens) (UniProt Q9Y5Y6).
T4 sequence (whole entry): T2 sequence (Q9Y5Y6 whole entry)
Description: Inhibition of recombinant human Matriptase at 100 nM by Michaelis-Menten analysis relative to control.

The target in data set [6] is T2, Suppressor of tumorigenicity 14 protein. Briefly: Competitive tight binding inhibition of recombinant human Matriptase using Boc-QAR-AMC as substrate assessed as inhibition constant by fluorescence based analysis.
Data set [7] deals with T1, Transmembrane protease serine 6. Briefly: Competitive tight binding inhibition of recombinant human TMPRSS6 using Boc-QAR-AMC as substrate assessed as inhibition constant by fluorescence based analysis.
The species entered for data set [8] is Homo sapiens. Briefly: Selectivity index, ratio of Ki for competitive tight binding inhibition of recombinant human Matriptase using Boc-QAR-AMC as substrate assessed as inhibition constant by fluorescence based analysis to Ki for competitive tight binding inhibition of recombinant human TMPRSS6 using Boc-QAR-AMC as substrate assessed as inhibition constant by fluorescence based analysis.

In data set [9] the target is T5, Prothrombin (Homo sapiens, UniProt P00734). Briefly: Inhibition of recombinant human thrombin using Boc-QAR-AMC as substrate assessed as inhibition constant by fluorescence based analysis.
The target in data set [10] is T6, Coagulation factor X (Homo sapiens, UniProt P00742). Description: Inhibition of recombinant human FXA using Boc-QAR-AMC as substrate assessed as inhibition constant by fluorescence based analysis.
T6 sequence (P00742 41-179 limits assumed): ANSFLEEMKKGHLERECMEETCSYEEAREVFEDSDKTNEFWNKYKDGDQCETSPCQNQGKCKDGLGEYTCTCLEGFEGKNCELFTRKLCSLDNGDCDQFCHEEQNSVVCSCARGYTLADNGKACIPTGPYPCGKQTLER
T6 sequence (P00742 235-488 limits assumed): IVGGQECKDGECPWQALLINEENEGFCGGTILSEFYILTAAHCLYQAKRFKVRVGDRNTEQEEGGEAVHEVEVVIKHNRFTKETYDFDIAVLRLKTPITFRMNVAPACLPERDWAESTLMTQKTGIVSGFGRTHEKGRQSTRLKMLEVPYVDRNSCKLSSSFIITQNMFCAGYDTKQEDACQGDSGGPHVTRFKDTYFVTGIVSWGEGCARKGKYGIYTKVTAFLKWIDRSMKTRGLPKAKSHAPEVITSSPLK
For data set [11], the target named is T7, Furin (Homo sapiens, UniProt P09958). Description: Inhibition of recombinant human furin using Boc-RVRR-AMC as substrate assessed as inhibition constant by fluorescence based analysis.
T7 sequence (P09958 whole entry): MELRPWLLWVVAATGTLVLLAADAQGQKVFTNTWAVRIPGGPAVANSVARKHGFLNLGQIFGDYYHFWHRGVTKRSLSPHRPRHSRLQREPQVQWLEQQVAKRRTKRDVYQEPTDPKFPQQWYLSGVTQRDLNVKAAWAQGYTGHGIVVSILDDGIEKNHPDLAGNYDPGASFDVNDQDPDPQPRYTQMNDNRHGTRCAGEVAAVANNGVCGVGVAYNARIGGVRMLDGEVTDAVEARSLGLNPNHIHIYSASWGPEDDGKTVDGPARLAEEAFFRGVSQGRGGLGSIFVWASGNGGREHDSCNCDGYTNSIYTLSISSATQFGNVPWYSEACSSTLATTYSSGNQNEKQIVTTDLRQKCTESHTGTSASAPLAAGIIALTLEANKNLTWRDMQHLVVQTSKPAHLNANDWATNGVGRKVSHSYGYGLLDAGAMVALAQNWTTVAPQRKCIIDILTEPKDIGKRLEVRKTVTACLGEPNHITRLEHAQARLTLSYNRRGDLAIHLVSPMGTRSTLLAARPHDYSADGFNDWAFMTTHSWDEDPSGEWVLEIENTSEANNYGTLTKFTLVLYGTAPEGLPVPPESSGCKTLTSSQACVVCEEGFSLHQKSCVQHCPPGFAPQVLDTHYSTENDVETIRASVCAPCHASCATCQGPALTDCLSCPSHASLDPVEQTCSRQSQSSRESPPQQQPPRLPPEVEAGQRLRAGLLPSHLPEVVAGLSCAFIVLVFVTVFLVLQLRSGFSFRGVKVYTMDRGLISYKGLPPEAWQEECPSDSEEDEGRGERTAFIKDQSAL
Data set [12] deals with T5, Prothrombin. Briefly: Inhibition of thrombin (unknown origin).
The target of data set [13] is T6, Coagulation factor X. Briefly: Inhibition of FXA (unknown origin).
The target of data set [14] is T7, Furin. Briefly: Inhibition of furin (unknown origin).
The nature of data set [15]: Cytotoxicity against HEK cells assessed as reduction in cell viability measured for 24 hrs by celltiter-glo 2.0 assay. The format is toxicity, cell-based. The settings on record: human. On the technique in general: ATP-based viability assays read luminescence as a measure of living cells.
For data set [16], the target named is T1, Transmembrane protease serine 6. Description: Inhibition of human TMPRSS6 transfected in HEK293SL cells using Boc-QAR-AMC as substrate measured for 24 hrs. The format is cell-based.
In data set [17] the target is T2, Suppressor of tumorigenicity 14 protein. Briefly: Inhibition of human Matriptase transfected in HEK293SL cells using Boc-QAR-AMC as substrate measured for 24 hrs. Format: cell-based.
The species entered for data set [18] is Homo sapiens. Briefly: Selectivity index, ratio of IC50 for inhibition of human Matriptase transfected in HEK293SL cells using Boc-QAR-AMC as substrate to IC50 for inhibition of human TMPRSS6 transfected in HEK293SL cells using Boc-QAR-AMC as substrate. The format is cell-based.
The nature of data set [19]: Solubility of compound in PBS at pH 7.4 measured for 90 mins by UPLC analysis. Format: physicochemical. The settings on record: buffer, pH 7.4, 1.5 h.
Data set [20] in a line: Stability in Sprague-Dawley rat plasma assessed as parent compound remaining at 24 hrs by UPLC-MS analysis. The format is ADME, cell-free.
Data set [21] is described as follows: Metabolic stability in Sprague-Dawley rat microsome assessed as half life measured for 120 mins in presence of NADPH by UPLC-MS analysis. Format: ADME. The settings on record: microsomes, 2 h.
Data set [22] in a line: Metabolic stability in Sprague-Dawley rat microsome assessed as intrinsic clearance measured for 120 mins in presence of NADPH by UPLC-MS analysis. The format is ADME. The settings on record: microsomes, 2 h.
Data set [23] can be described thus: Apparent Permeability of compound in PBS buffer at pH 7.4 incubated for 17 hrs by PAMPA assay. Format: ADME. The settings on record: pH 7.4, 17 h. (In general: PAMPA measures passive passage across an artificial lipid membrane.)
In data set [24] the test system is Caco-2. Briefly: Disruption of epithelial integrity in human Caco-2 cells assessed as change in TEER modulation after 8 days. The format is functional, cell-based. The settings on record: Caco-2, 192 h.
The test system of data set [25] is Caco-2. Description: Disruption of epithelial integrity in human Caco-2 cells assessed as change in TEER modulation at 10 uM after 8 days. The settings on record: time 8.0 day. The format is functional, cell-based.
Data set [26] addresses T2, Suppressor of tumorigenicity 14 protein. Briefly: Mixed inhibition of recombinant human Matriptase using Boc-QAR-AMC as substrate assessed as inhibition constant by fluorescence based analysis.
The species named for data set [27] is Homo sapiens. Description: Selectivity index, ratio of Ki for mixed inhibition of recombinant human Matriptase using Boc-QAR-AMC as substrate assessed as inhibition constant by fluorescence based analysis to Ki for competitive tight binding inhibition of recombinant human TMPRSS6 using Boc-QAR-AMC as substrate assessed as inhibition constant by fluorescence based analysis.

Converted amounts (≈) assume the structure as drawn. The source made the active and inactive calls. The rule behind the calls is not given here.

As usually defined, the Ki is a dissociation constant, usually derived from enzyme kinetics or from competition with a known ligand. What is called inhibition is the percentage by which the read-out fell short of the control. As usually defined, the IC50 is the midpoint of a concentration-inhibition curve. The solubility is the dissolved amount per volume that the medium holds. A low value points to little dissolved substance. For `CC(C)[C@H](NC(=O)[C@H](Cc1cscn1)NC(=O)CCc1ccccc1)C(=O)N[C@@H](CCCNC(=N)N)C(=O)c1nc2ccccc2s1`, the Ki turned out to be 1.2 nM in [1]; 8.6 nM in [2]; 4.8 nM in [6]; 0.6 nM in data set [7]; 53 nM in data set [9]; 2320 nM in data set [10]. Also, the Ki in data set [11] was more than 10000 nM; in data set [12], 1100 nM; in data set [13], 323 nM; in data set [14], more than 30000 nM. Moreover, the figures for the Ratio Ki in [3] and in [8] were 7.2 and 8, respectively. For the same molecule, the inhibition in data set [4] was found to be 1%; in data set [5], 5%. In addition, in [15], the Activity result is “Non-Toxic”. The IC50 in data set [16] was 4.4 nM; in data set [17], 18.1 nM; in data set [24] it was 18.1 nM. The Ratio IC50 in [18] was 4. Besides, in data set [19], the solubility turned out to be 250 µM (≈ 169 µg/mL). Besides, in [20], the Stability was found to be 6%. In data set [21], the t1/2 was more than 2 h. Also, the CLH in [22] was determined as 1.12 µL/min/mg. In addition, the Papp in data set [23] was 0.004 10^-6 cm/s. Also, the result in data set [25] was Active.

Regarding `N=C(N)NCCC[C@H](NC(=O)[C@@H](NC(=O)[C@H](CCc1ccccc1)NC(=O)CCc1ccccc1)C1CCCCC1)C(=O)c1nc2ccccc2s1`, the Ki in data set [26] is 618 nM; in [7] it was 5.2 nM; in data set [9], 395 nM; in [10] it was more than 10000 nM; in data set [11], more than 10000 nM. Further, the Ratio Ki in data set [27] is 119. In addition, the IC50 in [16] worked out at 332 nM; in [17] it was 6070 nM; in data set [24] it was 6100 nM. For the same molecule, the Ratio IC50 in [18] turned out to be 18. In addition, the Stability in data set [20] came to 100%. The t1/2 in data set [21] was more than 2 h. Besides, the CLH in data set [22] turned out to be 1.4 µL/min/mg. Further, in data set [23], the Papp was 0.01 10^-6 cm/s.
